From article PMC4583543, “Development and Validation of a Novel Leishmania donovani Screening Cascade for High-Throughput Screening Using a Novel Axenic Assay with High Predictivity of Leishmanicidal Intracellular Activity” (PLoS Neglected Tropical Diseases, 2015)
Like-named read-outs stand apart in the source and are kept apart here.

What was measured:
[1] = tested on: LdBOB axenic amastigote-like cells; test: Novel (cidal) axenic amastigote assay, BacTiter-Glo read-out; assay type: cell-based, Leishmania donovani
Source text: Leishmania donovani BOB cells (LdBOB) used in this study are a cloned line from strain MHOM/SD/62/1S-CL2 [13]. Cultures were maintained as described previously. Compounds were dispensed into 384-well assay plates by acoustic dispensing (LabCyte ECHO). […] Potencies are reported as pEC50 (-LOG(EC50[M])). All data was processed using IDBS ActivityBase. […] For compounds with low activity and poor definition of the curve top, B was fixed to 100. For the determination of the reference compound panel potency, all experiments were carried out with a minimum of three independent repeats. Test compounds were pre-dispensed into white 384 well plates (Corning). For library screens one compound per well was tested at the indicated final concentration. […] DMSO, zero percent effect control: cells at starting concentration. The zero percent effect control wells are left empty during the course of the assay. […] The assay volume is 25 μl / well. […] Plates were then sealed with clear film and relative luminescence was detected using a plate reader (Victor 3) from Perkin Elmer or PHERAstar FS from BMG LABTECH, with 0.5 s detection time per well).

[2] = tested on: eGFP expressing LdBOB amastigote-like cells in PMA differentiated THP-1 cells; test: Intramacrophage (intracellular, INMAC) assay; assay type: cell-based, Leishmania donovani; conditions: for EC50: Leishmania donovani
Method: (§1) Compounds were dispensed into 384-well assay plates by acoustic dispensing (LabCyte ECHO). […] Potencies are reported as pEC50 (-LOG(EC50[M])).
(§2) All data was processed using IDBS ActivityBase. […] Potency plates were normalised to DMSO control (0% effect) and 2μM amphotericin B control (100% effect). […] For compounds with low activity and poor definition of the curve top, B was fixed to 100. For the determination of the reference compound panel potency, all experiments were carried out with a minimum of three independent repeats.
(§3) The assay conditions are described previously. Briefly PMA differentiated THP-1 cells were infected overnight with eGFP expressing LdBOB amastigote-like cells at a multiplicity of infection of 5. Next, any remaining free amastigote-like cells are removed and compounds are added. The microscopy-based read-out is done after a four day compound incubation.

[3] = tested on: THP-1 cells; test: THP-1 host cell toxicity in the intramacrophage assay; assay type: cell-based, human; conditions: Homo sapiens
Method: as §1, §2, §3

[4] = tested on: HepG2 cells; test: HepG2 assay (mammalian counterscreen, resazurin); assay type: cell-based, human; conditions: Homo sapiens, read-out: HepG2 (potency, pEC50) (converted)
Method: Compounds were dispensed into 384-well assay plates by acoustic dispensing (LabCyte ECHO). […] Potencies are reported as pEC50 (-LOG(EC50[M])). All data was processed using IDBS ActivityBase. […] For compounds with low activity and poor definition of the curve top, B was fixed to 100. For the determination of the reference compound panel potency, all experiments were carried out with a minimum of three independent repeats. The assay conditions are described previously.

[5] = Leishmania donovani; DOS library compounds, ten-point dose response; read-out: cAX pEC50 (converted)
[6] = THP-1, DOS library compounds, dose response, read-out: INMAC (intracellular) pEC50 (converted)
[7] = THP-1, DOS library compounds, dose response, read-out: THP1 pEC50 (converted)
[8] = Leishmania donovani; read-out: Novel (axenic assay potency, pEC50) (converted)
[9] = THP-1, 96 h, reference compound panel, mean (standard deviation), minimum three independent repeats, four day incubation, read-out: Intramacrophage (potency, pEC50) (converted)
[10] = THP-1, reference compound panel, mean (standard deviation), host cell toxicity, read-out: THP-1 (potency, pEC50) (converted)
[11] = HepG2, reference compound panel, mean (standard deviation), 72 h
[12] = single concentration screen at 25 μM

CCCNC(=O)N1[C@H](C#N)[C@H](c2ccc(C#Cc3ccc(F)cc3)cc2)[C@@H]1CO [BRD1184]
EC50 [1, 5]: 0.631 µM | EC50 [2, 6]: 2 µM | EC50 [3, 7]: 15.8 µM

CCCNC(=O)N1[C@H](C#N)[C@H](c2ccc(-c3cccc(OC)c3)cc2)[C@H]1CO [BRD6650 SSS stereoisomer]
EC50 [2, 6]: 20 µM

Cn1c([N+](=O)[O-])cnc1COc1ccc(S(C)(=O)=O)cc1 [Fexinidazole sulfone]
EC50 [1, 8]: 7.76 µM | EC50 [2, 9]: 32.4 µM | EC50 [3, 10]: > 34.7 µM | EC50 [4, 11]: > 50.1 µM

CCCNC(=O)N1[C@H](CO)[C@H](c2ccc(-c3cccc(OC)c3)cc2)[C@@H]1C#N [BRD6650 SRR stereoisomer]
EC50 [2, 6]: 31.6 µM

CSc1ccc(OCc2ncc([N+](=O)[O-])n2C)cc1 [Fexinidazole]
EC50 [1, 8]: 11.5 µM | EC50 [2, 9]: > 34.7 µM | EC50 [3, 10]: > 34.7 µM | EC50 [4, 11]: > 50.1 µM

NCCCC(O)(P(=O)(O)O)P(=O)(O)O [Alendronic acid]
EC50 [1, 8]: > 50.1 µM | EC50 [2, 9]: > 34.7 µM | EC50 [3, 10]: > 34.7 µM | EC50 [4, 11]: > 50.1 µM

O=c1cc(-c2ccc(O)c(O)c2)oc2cc(O)cc(O)c12 [Luteolin]
EC50 [1, 8]: 46.8 µM | EC50 [2, 9]: 28.2 µM | EC50 [3, 10]: 14.5 µM | EC50 [4, 11]: 24.5 µM

CC(C)NC(=O)N1[C@H](C#N)[C@H](c2ccc(-c3ccc(F)cc3)cc2)[C@@H]1CO [BRD3486]
EC50 [1, 5]: 2 µM | EC50 [2, 6]: 6.31 µM | EC50 [3, 7]: 10 µM

OC(c1cc(C(F)(F)F)nc2c(C(F)(F)F)cccc12)C1CCCCN1 (centres unmarked) [Mefloquine]
EC50 [1, 8]: > 50.1 µM | EC50 [2, 9]: 8.51 µM | activity in words (intracellular versus novel axenic) ([2]; reference compound panel): only active in the intracellular assay | EC50 [3, 10]: 12 µM | EC50 [4, 11]: 9.77 µM

CC[C@@H]([C@H](C)O)n1ncn(-c2ccc(N3CCN(c4ccc(OC[C@@H]5CO[C@@](Cn6cncn6)(c6ccc(F)cc6F)C5)cc4)CC3)cc2)c1=O [Posaconazole]
EC50 [1, 8]: 36.3 µM | EC50 [2, 9]: 18.6 µM | EC50 [3, 10]: 17.8 µM | EC50 [4, 11]: 8.51 µM

COc1ccc(-c2ccccc2[C@H]2[C@@H](C#N)N(C(=O)NC(C)C)[C@H]2CO)cc1 [BRD3029]
EC50 [1, 5]: 1.58 µM | EC50 [2, 6]: 12.6 µM | EC50 [3, 7]: > 50.1 µM

C[C@@H]1[C@H](O)[C@@H](C)/C=C/C=C/C=C/C=C/C=C/C=C/C=C/[C@H](O[C@@H]2O[C@H](C)[C@@H](O)[C@H](N)[C@@H]2O)C[C@@H]2O[C@](O)(C[C@@H](O)C[C@@H](O)[C@H](O)CC[C@@H](O)C[C@@H](O)CC(=O)O[C@H]1C)C[C@H](O)[C@H]2C(=O)O [Amphotericin B]
EC50 ([1]; Leishmania donovani; control on each plate, run to run over extended time period; ± StDev; read-out: average pEC50 of plate control (converted)): 0.126 µM | EC50 [1, 8]: 0.302 µM | EC50 [2, 9]: 0.24 µM | EC50 [3, 10]: 26.9 µM | EC50 [4, 11]: > 50.1 µM

N=C(N)c1ccc(/N=N/Nc2ccc(C(=N)N)cc2)cc1 [Diminazene]
EC50 [1, 8]: 11.7 µM | EC50 [2, 9]: > 34.7 µM | EC50 [3, 10]: > 34.7 µM | EC50 [4, 11]: > 50.1 µM

CC(=O)O[C@@]12CO[C@@H]1C[C@H](O)[C@@]1(C)C(=O)[C@H](O)C3=C(C)[C@@H](OC(=O)[C@H](O)[C@@H](NC(=O)OC(C)(C)C)c4ccccc4)C[C@@](O)([C@@H](OC(=O)c4ccccc4)[C@H]21)C3(C)C [Docetaxel]
EC50 [1, 8]: 8.91 µM | EC50 [2, 9]: 14.5 µM | EC50 [3, 10]: > 34.7 µM

CC1CS(=O)(=O)CCN1/N=C/c1ccc([N+](=O)[O-])o1 (centres unmarked) [Nifurtimox]
EC50 [1, 8]: 11.2 µM | EC50 [2, 9]: > 34.7 µM | EC50 [3, 10]: > 34.7 µM | EC50 [4, 11]: > 50.1 µM

CCCNC(=O)N1[C@H](CO)[C@@H](c2ccc(-c3cccc(OC)c3)cc2)[C@@H]1C#N [BRD6650 SSR stereoisomer]
EC50 [2, 6]: 10 µM

C[C@@]12C(=O)OC(=O)[C@]1(C)[C@H]1CC[C@@H]2O1 [Cantharidin]
EC50 ([1]; Leishmania donovani, read-out: Novel (axenic assay potency, pEC50) (converted)): 4.37 µM | EC50 ([2]; THP-1, 96 h, read-out: Intramacrophage (potency, pEC50) (converted)): 13.2 µM | EC50 ([3]; THP-1, read-out: THP-1 (potency, pEC50) (converted)): 2.75 µM | EC50 ([4]; HepG2, 72 h): 1.35 µM

COc1ccc2cc3[n+](cc2c1OC)CCc1cc2c(cc1-3)OCO2 [Berberine]
EC50 [1, 8]: 9.33 µM | EC50 [2, 9]: 16.2 µM | EC50 [3, 10]: > 34.7 µM | EC50 [4, 11]: 33.9 µM

CCCNC(=O)N1[C@H](CO)[C@@H](c2ccccc2-c2ccc(OC)cc2)[C@@H]1C#N [BRD2647 SSR stereoisomer]
activity in the initial HTS assay [1, 12]: inactive

CCCNC(=O)N1[C@H](C#N)[C@@H](c2ccc(-c3cccc(OC)c3)cc2)[C@H]1CO [BRD6650 SRS stereoisomer]
EC50 [2, 6]: 20 µM

Cc1ccc(C(=O)Nc2ccc(S(=O)(=O)O)c3cc(S(=O)(=O)O)cc(S(=O)(=O)O)c23)cc1NC(=O)c1cccc(NC(=O)Nc2cccc(C(=O)Nc3cc(C(=O)Nc4ccc(S(=O)(=O)O)c5cc(S(=O)(=O)O)cc(S(=O)(=O)O)c45)ccc3C)c2)c1 [Suramin]
EC50 [1, 8]: > 50.1 µM | EC50 [2, 9]: > 34.7 µM | EC50 [3, 10]: > 34.7 µM | EC50 [4, 11]: > 50.1 µM

CCCNC(=O)N1[C@H](C#N)[C@H](c2ccc(-c3cccnc3)cc2)[C@@H]1CO [BRD9157]
EC50 [1, 5]: 12.6 µM | EC50 [2, 6]: 1.58 µM | EC50 [3, 7]: > 50.1 µM

CCCNC(=O)N1[C@H](C#N)[C@H](c2ccc(C#Cc3cccc(F)c3)cc2)[C@@H]1CO [BRD0645]
EC50 [1, 5]: 0.794 µM | EC50 [2, 6]: 3.98 µM | EC50 [3, 7]: > 50.1 µM

CCCNC(=O)N1[C@H](C#N)[C@@H](c2ccccc2-c2ccc(OC)cc2)[C@@H]1CO [BRD2647 RRS stereoisomer]
EC50 [2, 6]: 39.8 µM

CCCNC(=O)N1[C@H](C#N)[C@@H](c2ccc(-c3cccc(OC)c3)cc2)[C@@H]1CO [BRD6650 RRS stereoisomer]
EC50 [2, 6]: 15.8 µM

CCCNC(=O)N1[C@@H](C#N)[C@@H](c2ccc(-c3cccc(OC)c3)cc2)[C@@H]1CO [BRD6650 RRR stereoisomer]
EC50 [2, 6]: 50.1 µM

COc1ccc(-c2ccccc2[C@H]2[C@@H](C#N)N(C(=O)NC3CCCC3)[C@H]2CO)cc1 [BRD9613]
EC50 [1, 5]: 1.58 µM | EC50 [2, 6]: 10 µM | EC50 [3, 7]: > 50.1 µM

CCCNC(=O)N1[C@H](CO)[C@H](c2ccccc2-c2ccc(OC)cc2)[C@@H]1C#N [BRD2647 SRR stereoisomer]
activity in the initial HTS assay [1, 12]: inactive

CCCNC(=O)N1[C@H](C#N)[C@H](c2ccc(-c3cccc(OC)c3)cc2)[C@@H]1CO [BRD6650]
EC50 [1, 5]: 0.501 µM | EC50 [2, 6]: 2 µM | EC50 [3, 7]: > 50.1 µM

CCCNC(=O)N1[C@H](C#N)[C@H](c2ccccc2-c2ccc(OC)cc2)[C@@H]1CO [BRD2647]
EC50 [1, 5]: 1.58 µM | EC50 [2, 6]: 6.31 µM | EC50 [3, 7]: > 50.1 µM

CCCNC(=O)N1[C@H](C#N)[C@H](c2ccc(C3=CCCCC3)cc2)[C@@H]1CO [BRD5744]
EC50 [1, 5]: 0.794 µM | EC50 [2, 6]: 2 µM | EC50 [3, 7]: > 50.1 µM

CCCNC(=O)N1[C@H](C#N)[C@H](c2ccccc2-c2ccc(C)cc2)[C@@H]1CO [BRD4332]
EC50 [1, 5]: 0.631 µM | EC50 [2, 6]: 6.31 µM | EC50 [3, 7]: > 50.1 µM
